Patent publication US9012433B2, “Substituted tetracycline compounds” (Paratek Pharmaceuticals, Inc., priority 2006, dated 2015)
≈ marks a conversion by molar mass, not a printed value. Where two headings read alike, the source gives them in different places.

Tests used:
P. acnes ATCC 6919 = assay: Antibacterial MIC, CLSI broth microdilution; assay type: cell-based; settings: Cutibacterium acnes, ATCC6919; 35° C., 18-24 hours
Procedure: (§1) Grain (−) and gram (+) antibacterial minimum inhibitory concentration (MIC) values (μg/mL) were obtained using CLSI methodology for anti-bacterial susceptibility testing. On each day of testing, serial dilutions of compounds were prepared in microdilution plates using a Tecan robotic workstation. Mueller Hinton broth cultures of representative sensitive and resistant gram negative strains were grown or adjusted to match the turbidity of a 0.5 McFarland standard. 1:200 dilutions were made in an appropriate broth (cation supplemented Mueller Hinton broth) to allow a final inoculum of 1×10^5 cfu. Plates were incubated at 35° C. in ambient air for 18-24 hours, were read spectrophotometrically and checked manually for evidence of bacterial growth. The lowest dilution of compound that inhibited growth was recorded as the MIC. Lysed horse blood was used to supplement broth for testing S. pneumoniae. The MIC's for each compound were assessed against S. aureus, S. pneumoniae, P. acnes, E. coli and B. theta.

P. acnes ATCC 11827 = assay: Antibacterial MIC, CLSI broth microdilution; assay type: cell-based; settings: Cutibacterium acnes, ATCC11827; 35° C., 18-24 hours
Procedure: as §1

S. aureus RN450 [1] = assay: Antibacterial MIC, CLSI broth microdilution; assay type: cell-based; settings: Staphylococcus aureus, RN450; 35° C., 18-24 hours
Procedure: as §1

[2] = tested on: B. thetaiotaomicron ATCC 29741; assay: Antibacterial MIC, CLSI broth microdilution; assay type: cell-based; settings: Bacteroides thetaiotaomicron
Procedure: as §1

[3] = tested on: S. pneumoniae 157E - Strep; assay: Antibacterial MIC, CLSI broth microdilution; assay type: cell-based; settings: Streptococcus pneumoniae, 157ESTREP; 35° C., 18-24 hours; lysed horse blood
Procedure: as §1

E. coli ATCC 25922 = assay: Antibacterial MIC, CLSI broth microdilution; assay type: cell-based; settings: Escherichia coli, ATCC25922; 35° C., 18-24 hours
Procedure: as §1

E. coli MG 1655 = assay: Antibacterial MIC, CLSI broth microdilution; assay type: cell-based; settings: Escherichia coli, MG1655; 35° C., 18-24 hours
Procedure: as §1

S. aureus RN450 [4] = assay: In vivo anti-bacterial activity, S. aureus model; settings: Staphylococcus aureus, sc, mice, 24 hours; for ED50: lethal IP S. aureus RN450, subcutaneous, read-out: PD50 (dose that protects 50% of the animals); for responders at 5 mg/kg: lethal IP S. aureus RN450, single subcutaneous dose 5 mg/kg, read-out: Percent Survival
Procedure: Groups of five mice were injected intraperitoneally with a lethal dose of S. aureus RN450 in a medium of mucin. Mice were evaluated at 24 hours to determine survival. […] In some instances, a dose response study was performed with the compound such that a PD50 (a dose of compound that protects 50% of the animals) could be calculated.

in vitro = assay type: cell-based
Procedure: Mammalian cell cytotoxicity was assessed to evaluate potential in vivo risks associated with the tetracycline compounds of the invention. A soluble, non-toxic redox dye (“Resazurin”; Alamar Blue) was used to assess a tetracycline compound's effect on cellular metabolism. At the onset of the experiment, cultures of mammalian COS-1 or CHO cells were washed, trypsinized, and harvested. […] On the next day, serial dilutions of test drug were prepared under sterile conditions and transferred to cell plates. Plates were then incubated under the above conditions for 24 hours. Following the incubation period, the media/drug was aspirated, and 50 μL of resazurin was added. Plates were then incubated under the above conditions for 2 hours and then in the dark at room temperature for an additional 30 minutes. Fluorescence measurements were taken (excitation 535 nm, emission 590 nm) and toxic effects in treated versus control cells were compared based on the degree of fluorescence in each well.

[5] = ATCC29741, 35° C., 18-24 hours, read-out: MIC B. thetaiotaomicron ATCC 29741

SMILES | MIC (P. acnes ATCC 6919) [µg/mL] | MIC (P. acnes ATCC 11827) [µg/mL] | MIC (S. aureus RN450 [1]) [µg/mL] | MIC [2, 5] [µg/mL] | MIC [3] [µg/mL] | MIC (E. coli ATCC 25922) [µg/mL] | MIC (E. coli MG 1655) [µg/mL] | ED50 (S. aureus RN450 [4]) [mg/kg] | IC50 at 24 h (in vitro; African green monkey) [µg/mL] | IC50 at 24 h (in vitro; Chinese hamster) [µg/mL] | responders at 5 mg/kg (S. aureus RN450 [4]) [%] | MIC ([2]; ATCC29741, read-out: MIC B. thetaiotaomicron ATCC 29741) [µg/mL]
CO/N=C/c1cc(N(C)C)c2c(c1O)C(=O)C1=C(O)[C@]3(O)C(=O)C(C(N)=O)=C(O)[C@@H](N(C)C)[C@@H]3C[C@@H]1C2 [V, (4S,4aS,5aR,12aS)-4,7-Bis-dimethylamino-3,10,12,12a-tetrahydroxy-9-(methoxyimino-methyl)-1,11-dioxo-1,4,4a,5,5a,6,11,12a-octahydro-naphthacene-2-carboxylic acid amide] | < 4 | < 4 | < 4 | 4 to 8 (≈ 7.77 to 15.5 µM) | < 4 | > 8 | > 8 | 1.4 | < 35 | < 35 | – | –
C/C(=N\OC(C)(C)C)c1cc(N)c(O)c2c1C[C@H]1C[C@H]3[C@H](N(C)C)C(O)=C(C(N)=O)C(=O)[C@@]3(O)C(O)=C1C2=O [Q, (4S,4aS,5aR,12aS)-9-Amino-7-(1-tert-butoxyimino-ethyl)-4-dimethylamino-3,10,12,12a-tetrahydroxy-1,11-dioxo-1,4,4a,5,5a,6,11,12a-octahydro-naphthacene-2-carboxylic acid amide] | < 4 | < 4 | < 4 | 4 to 8 (≈ 7.37 to 14.7 µM) | < 4 | 4 to 8 (≈ 7.37 to 14.7 µM) | 4 to 8 (≈ 7.37 to 14.7 µM) | 0.45 | < 35 | < 35 | 100 | –
CON(C)Cc1ccc(O)c2c1C[C@H]1C[C@H]3[C@H](N(C)C)C(O)=C(C(N)=O)C(=O)[C@@]3(O)C(O)=C1C2=O [P] | < 4 | < 4 | < 4 | – | < 4 | 4 to 8 (≈ 8.2 to 16.4 µM) | 4 to 8 (≈ 8.2 to 16.4 µM) | 0.13 | > 75 | > 75 | 100 | 4 to 8 (≈ 8.2 to 16.4 µM)
CN(C)[C@@H]1C(O)=C(C(N)=O)C(=O)[C@@]2(O)C(O)=C3C(=O)c4c(O)ccc(CNOCC(F)(F)F)c4C[C@H]3C[C@@H]12 [DZ] | < 4 | < 4 | < 4 | < 4 | < 4 | 4 to 8 (≈ 7.39 to 14.8 µM) | > 8 | 1.11 | < 35 | < 35 | – | –
CN(C)[C@@H]1C(O)=C(C(N)=O)C(=O)[C@@]2(O)C(O)=C3C(=O)c4c(O)ccc(CNOCC(F)F)c4C[C@H]3C[C@@H]12 [DX] | < 4 | < 4 | < 4 | < 4 | < 4 | 4 to 8 (≈ 7.64 to 15.3 µM) | 4 to 8 (≈ 7.64 to 15.3 µM) | 0.58 | < 35 | 35 to 75 (≈ 66.9 to 143 µM) | – | –
C=CCONCc1ccc(O)c2c1C[C@H]1C[C@H]3[C@H](N(C)C)C(O)=C(C(N)=O)C(=O)[C@@]3(O)C(O)=C1C2=O [AF] | < 4 | < 4 | < 4 | < 4 | < 4 | 4 to 8 (≈ 8.01 to 16 µM) | 4 to 8 (≈ 8.01 to 16 µM) | 0.23 | 35 to 75 (≈ 70.1 to 150 µM) | 35 to 75 (≈ 70.1 to 150 µM) | – | –
CN(C)c1cccc2c1C[C@H]1C[C@H]3[C@H](N(C)C)C(O)=C(C(N)=O)C(=O)[C@@]3(O)C(O)=C1C2=O [C] | < 4 | < 4 | < 4 | > 8 | < 4 | > 8 | > 8 | – | > 75 | > 75 | 100 | –
CNc1c(-c2ccc(O)c3c2C[C@H]2C[C@H]4[C@H](N(C)C)C(O)=C(C(N)=O)C(=O)[C@@]4(O)C(O)=C2C3=O)c(=O)c1=O [AD, (4S,4aS,5aR,12aS)-4-Dimethylamino-3,10,12,12a-tetrahydroxy-7-(2-methylamino-3,4-dioxo-cyclobut-1-enyl)-1,11-dioxo-1,4,4a,5,5a,6,11,12a-octahydro-naphthacene-2-carboxylic acid amide] | < 4 | < 4 | < 4 | > 8 | < 4 | 4 to 8 (≈ 7.64 to 15.3 µM) | 4 to 8 (≈ 7.64 to 15.3 µM) | 4.54 | < 35 | < 35 | – | –
